# Biological target: T1, human LPA1 (Homo sapiens, UniProt Q92633)
# T1 construct: expressed in transfected cells; host or cells: CHO-K1
# Experiment: In vitro LPA1 calcium flux antagonist assay, Bioduro protocol
# Assay type: cell-based
# Details: CHO-K1 cells overexpressing human LPA1 and G15a; LPA challenge at EC80; calcium mobilization on FLIPR Tetra; read-out: IC50 (nM) in Assay B2
# Experimental: In Vitro LPA1 Calcium Flux Antagonist Assay Bioduro Protocol
# CHO-K1 cells overexpressing human LPA1 and G15a were seeded at a total volume of 20 uL (15000 cells/well) into Matrigel pre-coated 384-well plates (coming -3764) and incubated at 37° C. After overnight incubation, the cells were serum starved for 4 h. Assays were performed in dye loading buffer containing 1× Fluo-8 AM (AAT Bioquest, 21080) and 2.5 mM probenecid (Thermo Fisher, 36400) in HBSS/20 mM Hepes. After cell starvation, the medium was replaced with 20 uL of dye loading buffer and incubated at 37° C. for 30 min. Then 5 uL of 5× compound titrated in dye loading buffer was added to the cells and incubated for 30 min followed by LPA challenge at EC80. Calcium mobilization was measured on a FLIPR Tetra (MDS). For LPA EC80 determination, starved cells were incubated with 20 uL of dye loading buffer for 1 h, then 5 uL of 5×LPA titrated in dye loading buffer was added to the cells. Calcium signals induced by LPA was monitors on a FLIPR.
# Percentage inhibition is calculated using the following formula:
# % Inhibition=100%×(1−(mean RFU of test sample−mean RFU of DMSO)/(mean RFU of LPA control−mean RFU of DMSO)).
# T1 sequence (Q92633 whole entry): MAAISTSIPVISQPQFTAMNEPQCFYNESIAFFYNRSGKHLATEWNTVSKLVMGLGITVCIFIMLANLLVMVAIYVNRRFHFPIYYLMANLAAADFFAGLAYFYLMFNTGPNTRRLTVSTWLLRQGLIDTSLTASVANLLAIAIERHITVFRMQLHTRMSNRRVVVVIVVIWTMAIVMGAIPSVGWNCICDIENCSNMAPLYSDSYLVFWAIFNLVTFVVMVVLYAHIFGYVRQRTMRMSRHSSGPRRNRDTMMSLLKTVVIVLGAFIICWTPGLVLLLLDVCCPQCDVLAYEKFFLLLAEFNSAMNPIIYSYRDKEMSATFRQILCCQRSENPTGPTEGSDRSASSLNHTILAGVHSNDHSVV
row,SMILES,IC50 [nM]
1,COc1cc([C@@H](O)[C@H](Cn2cc3nccc(C(=O)O)c3n2)OC2CCCC2)c(C)cc1C [Compound 188],447
2,COc1cc([C@@H](O)[C@H](Cn2cc3nccc(C(=O)O)c3n2)OC2CCCC2)ccc1C(F)F [Compound 189],454
3,COc1cc([C@@H](O)[C@H](Cn2cc3nccc(C(=O)O)c3n2)OC2CCCC2)c(F)cc1C [Compound 190],1530
4,COc1cc([C@@H](O)[C@H](Cn2cc3nccc(C(=O)O)c3n2)OC2CCCC2)ccc1C [Compound 191],662
5,COc1c(C)ccc([C@@H](O)[C@H](Cn2cc3nccc(C(=O)O)c3n2)OC2CCCC2)c1C [Compound 192],1120
6,COc1c(C)ccc([C@@H](O)[C@H](Cn2cc3nccc(C(=O)O)c3n2)OC2CCCC2)c1F [Compound 193],757
7,COc1cc([C@@H](O)[C@H](Cn2cc3nccc(C(=O)O)c3n2)OC2CCCC2)c(C)c(OC)c1C [Compound 199],667
8,COc1c(C)ccc([C@@H](O)[C@H](Cn2cc3nccc(C(=O)O)c3n2)OC2CCCC2)c1Cl [Compound 200],1130
9,COc1cc([C@@H](O)[C@H](Cn2cc3nccc(C(=O)O)c3n2)OC2CCCC2)c(Cl)cc1C [Compound 201],938
10,COc1cc([C@@H](O)[C@H](Cn2cc3nccc(C(=O)O)c3n2)OC2CCCC2)c(Cl)c(OC)c1C [Compound 202],4260
11,CCOc1cc([C@@H](O)[C@H](Cn2cc3nccc(C(=O)O)c3n2)OC2CCCC2)cc(OCC)c1C [Compound 203],530
12,CCOc1cc([C@@H](O)[C@H](Cn2cc3nccc(C(=O)O)c3n2)OC2CCCC2)cc(OCC)c1C(C)=O [Compound 204],122
13,CCOc1cc([C@@H](O)[C@H](Cn2cc3cncc(C(=O)O)c3n2)OC2CCCC2)cc(OCC)n1 [Compound 208],≥ 10000
14,COc1cc([C@@H](O)[C@H](Cn2cc3nccc(C(=O)O)c3n2)OCC(C)C)cc(OC)c1C [Compound 211],459
15,COc1cc([C@@H](O)[C@H](Cn2cc3nccc(C(=O)O)c3n2)OCCCc2ccccc2)cc(OC)c1C [Compound 214],> 10000

# Next, values leading:
row,IC50 [nM],SMILES
1,26.9,COc1cc([C@@H](O)[C@H](Cn2cc3nc(C)cc(C(=O)O)c3n2)OC2CCCC2)cc(OC)c1C [Compound 194]
2,32.3,COc1cc([C@@H](O)[C@H](Cn2cc3cc(C)nc(C(=O)O)c3n2)OC2CCCC2)cc(OC)c1C [Compound 195]
3,16.3,COc1cc([C@@H](O)[C@H](Cn2cc3nc(C4CC4)cc(C(=O)O)c3n2)OC2CCCC2)cc(OC)c1C [Compound 196]
4,23.8,COc1cc(C(=O)O)c2nn(C[C@H](OC3CCCC3)[C@H](O)c3cc(OC)c(C)c(OC)c3)cc2n1 [Compound 197]
5,6.87,COc1cc([C@@H](O)[C@H](Cn2cc3nc(Cl)cc(C(=O)O)c3n2)OC2CCCC2)cc(OC)c1C [Compound 198]
6,507,COc1cc([C@@H](O)[C@H](Cn2cc3nccc(C(=O)O)c3n2)OC2CCCC2)cc(OC)c1C1CC1 [Compound 205]
7,2120,COc1cc([C@@H](O)C(Cc2nc(CC(=O)O)c(C(=O)O)s2)OC2CCCC2)cc(OC)c1C (stereo partly shown) [Compound 206]
8,723,COc1cc([C@@H](O)C(Cc2nc(C3(C(=O)O)CC3)c(C)s2)OC2CCCC2)cc(OC)c1C (stereo partly shown) [Compound 207]
9,7810,COC(=O)Cc1nc(CC(OC2CCCC2)[C@H](O)c2cc(OC)c(C)c(OC)c2)sc1C(=O)O (stereo partly shown) [Compound 210]
10,10.8,COc1cc([C@@H](O)[C@H](Cn2cc3nc(C#N)cc(C(=O)O)c3n2)OC2CCCC2)cc(OC)c1C [Compound 212]
11,≥ 10000,COc1cc([C@@H](O)[C@H](Cn2nnc3c(C(=O)O)cccc32)OC2CCCC2)cc(OC)c1C [Compound 213]
12,140,COc1cc([C@@H](O)[C@H](Cn2cc3nccc(C(=O)O)c3n2)OC2CCCC2)cc(OC)c1C(F)F [Compound 215]
13,9.61,COc1cc([C@@H](O)[C@H](Cn2cc3c(OC)ccc(C(=O)O)c3n2)OC2CCCC2)cc(OC)c1C [Compound 216]
